Data reported in EP0906096B1, “USE OF HYDROXYPROLINES FOR THE MANUFACTURE OF A MEDICAMENT FOR INHIBITING LEUKOCYTE INVASION OF TISSUES” (Chephasaar Chem.-Pharm. Fabrik GmbH, priority 1996, dated 1997).

Tests used:
Granulozyten [1] = test: Adhesion of granulocytes to an endothelial layer (method of Hahne et al. 1993); type: cell-based
Excerpt: Gemäß M. Hahne et al. (1993), J. Cell. Biol. 121, 655-664 wurde die IC50-Konzentration von Hydroxyprolinderivaten, die zu einer 50 %igen Reduktion der Adhäsion von Granulozyten an einer Endothelschicht führte, bestimmt. Als besonders wirksam zeigte sich die an R2 acetylierte Verbindung.

Granulozyten [2] = test: Ex vivo adhesion of volunteers' granulocytes to endothelia after oral intake; type: in vivo, Menschen
Excerpt: Gesunde Probanden erhielten eine einmalige Dosis von N-Acetylhydroxyprolin zum Zeitpunkt 0. Unmittelbar vorher und zu den genannten Zeitpunkten wurde Blut abgenommen und die Leukozyten mit Hilfe der Lymphoprep-Separation (Histoprep, Biologische Arbeitsgemeinschaft GmbH, Lich, Germany) präpariert. Die Adhäsion wurde wie in M. Hahne et al. (1993), J . Cell Biol. 121, 655 - 664 beschrieben bestimmt. Die durch LPS-Stimulation erhöhte Adhäsion ist evident (⌀ im Vergieich zu LPS, Zeitpunkt ⌀).

[3] = tested on: Lymphozyten und Monozyten; test: Ex vivo adhesion of volunteers' lymphocytes and monocytes after oral intake; type: in vivo, Menschen; details: 400 - 800 mg
Blutplättchen = test: Ex vivo platelet function after oral intake; type: in vivo; details: volunteers, 400 - 800 mg
[4] = tested on: Carrageenin-Pfotenödem, Adjuvansarthritis, Baumwollgranulom; test: Standard inflammation models (carrageenan paw oedema, adjuvant arthritis, cotton granuloma), histology; type: in vivo; details: short-term and long-term application; histological work-up
[5] = tested on: eosinophiles Lungeninfiltrat; test: Acute allergic inflammation: protein-induced eosinophilic lung infiltrate in sensitised guinea pigs; type: in vivo, Meerschweinchen
Excerpt: In Modellen der akuten allergischen Entzündung, wie z.

[6] = tested on: ischämisch traumatisiertes Gefäßendothel; test: Post-ischaemia model (Nolte et al. 1995), leukocyte adherence in postcapillary venules; type: in vivo, Hamster; details: 50 mg/kg given 10 min before reperfusion; effect present after 0,5 and 2 hours; in all animals
Method: In dem von Nolte et al., Int. J. Microcirc. 15 (suppl 1) (1995), 9 - 16 beschriebenen Postischämiemodell beim Hamster zeigte sich, dass N-Acetylhydroxyprolin (Oxazeprol) bei Dosierungen von 50 mg/kg kurz yor Reperfusion (10 min) gegeben, die Adhäsion der Leukozyten am ischämisch traumatisierten Gefäßendothel um ca. 50 % reduzierte. Dieser Effekt war nach 0,5 und 2 Stunden vorhanden (Abb. 3). Er trat in allen untersuchten Tieren auf. Oxazeprol verhielt sich damit ähnlich wie Buflomidil (ein PDE4-Hemmer), Iloprostol (ein PhI-Analog) und monoklonale Antikörper gegen Selektine, d.h. N-Acetylhydroxyprolin verhinderte spezifisch die im Gefolge einer Noxe (Ischämie) auftretende Leukozytenadhäsion und -invasion ins Gewebe.

[7] = ex vivo, volunteers, single or repeated intake of 400 - 800 mg

In the case of `CC(=O)N1C[C@H](O)C[C@H]1C(=O)O` [N-Acetylhydroxyprolin, N-Acetyl-L-hydroxyprolin], the “noch meßbar bei” value (Granulozyten [1]; concentration at which inhibition of granulocyte adhesion is still measurable, unit not given) is reported as 10^-9, the IC50 (Granulozyten [1]; concentration giving 50 % reduction of granulocyte adhesion to an endothelial layer, unit inferred) is reported as roughly 100 nM and the “Adhäsion der Granulozyten an Endothelien” value (Granulozyten [2]; [7]) is reported as “reduzierte Adhäsion”. For the same molecule, the “Dauer des Effekts auf die Granulozytenadhäsion” value (Granulozyten [2]; [7]) was 24 - 48 Stunden, the “durch LPS-Stimulation erhöhte Adhäsion” value (Granulozyten [2]; healthy volunteers, single dose at time 0, after 24 hours (Abb. 2)) was “weitgehend durch N-Acetylhydroxyprolin gehemmt” and the “Effekte auf Lymphozyten und Monozytenadhäsion” value [3] was “verschwanden hingegen nach wenigen Stunden”. For the same molecule, the “Funktion der Blutplättchen” value (Blutplättchen) was “nicht tangiert”, the “Invasion der Granulozyten” value [4] was “deutliche reduzierte Invasion” and the “Invasion von monozytären Leukozyten” value [4] was “kaum verändert”. For the same molecule, the “Einwanderung von Granulozyten” value ([5]; late phase) was “signifikant reduziert”, the “Einwanderung der eosinophilen Granulozyten” value ([5]; sensitised guinea pig, protein-induced) was “keinen meßbaren Effekt” and the “Reduktion der Adhäsion der Leukozyten am ischämisch traumatisierten Gefäßendothel” value [6] was “ca. 50%”.
